Experiments:
Type in all cases: in vivo
Corn [1] = assay: Multi-crop greenhouse test, herbicide POE (Examples 62-64; Tables 61-63); parameters: inhibition: dose or concentration left out as unconfirmed; details: for inhibition: Zea mays, Table 62, Biocide No. 1 8.96 Kg/Ha, antidote 4.48 Kg/Ha PPI where in label
Method: (§1) Tests according to this invention in various crops indicate widespread application of the invention. In Examples 62-66 below are described tests with a variety of herbicides contacted with COUNTER® 15G in the presence and absence of MON-7400 (Antidote No. 12); MON-13900 (No. 1); MON-4660 (No. 16) and flurazole (No. 16). Those tests were conducted according to Procedures IV or V described above and illustrated further in other foregoing examples. Plants used in all tests were, for crops (as abbreviated in parentheses); cotton (COTT); soybean (SOBE); CORN, grain sorghum (GRSO); wheat (WHEA) and RICE, and the weeds giant foxtail (GIFT) and velvetleaf (VELE). The data in the tables below represent averages of two replications.
(§2) In this test the crops and weeds were planted 1.3 cm deep in 13.7 cm X 27.7 cm pans containing Dupo silt loam soil. The test safeners were applied in acetone solution and COUNTER 15G as dry granules to soil cover layers and incorporated by shaking in a bag. Treated cover layers were placed on seeded pans which were transferred to greenhouse benches and subirrigated. Herbicide was applied POE six (6) days after PPI initiation and observations of plant injury made ten (10) days later; results are shown in Table 61. The herbicide used in this example was BEACON (No. 8).
(§3) The test procedure described in Example 62 was repeated using ACCENT® (Herbicide No. 7) as the herbicide; the biocide and safeners were the same.

cotton (COTT) = assay: Multi-crop greenhouse test, COUNTER 15G and safener PPI, herbicide POE (Examples 62-64; Tables 61-63); parameters: dose or concentration left out as unconfirmed; details: Gossypium hirsutum, Table 62, Biocide No. 1 8.96 Kg/Ha, antidote 4.48 Kg/Ha PPI where in label
Method: as §1, §2, §3

wheat (WHEA) = assay: Multi-crop greenhouse test, herbicide POE (Examples 62-64; Tables 61-63); parameters: dose or concentration left out as unconfirmed; details: Triticum aestivum, Table 62, Biocide No. 1 8.96 Kg/Ha, antidote 4.48 Kg/Ha PPI where in label
Method: as §1, §2, §3

RICE = assay: as above; parameters: dose or concentration left out as unconfirmed; details: Oryza sativa, Table 62, Biocide No. 1 8.96 Kg/Ha, antidote 4.48 Kg/Ha PPI where in label
Method: as §1, §2, §3

soybean (SOBE) = assay: as above; parameters: dose or concentration left out as unconfirmed; details: Glycine max, Table 62, Biocide No. 1 8.96 Kg/Ha, antidote 4.48 Kg/Ha PPI where in label
Method: as §1, §2, §3

Giant foxtail (GIFT) = assay: as above; parameters: dose or concentration left out as unconfirmed; details: Setaria faberi, Table 62, Biocide No. 1 8.96 Kg/Ha, antidote 4.48 Kg/Ha PPI where in label
Method: as §1, §2, §3

Velvetleaf (VELE) = assay: as above; parameters: dose or concentration left out as unconfirmed; details: Abutilon theophrasti, Table 62, Biocide No. 1 8.96 Kg/Ha, antidote 4.48 Kg/Ha PPI where in label
Method: as §1, §2, §3

grain sorghum (GRSO) = assay: as above; parameters: dose or concentration left out as unconfirmed; details: Biocide No. 1 8.96 Kg/Ha, antidote 4.48 Kg/Ha PPI where in label
Method: as §1, §2, §3

Corn [2] = assay: Greenhouse test Procedure VII: biocide and antidote in furrow, herbicide POE (Examples 39-42, 48-50, 56-58; Tables 38-41, 47-49, 55-57); details: in-furrow antidote; COUNTER 15G + sulfonamide herbicides; Table 41
In short: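 Corn seed was planted in greenhouse pots, with COUNTER 15G insecticide plus antidote granules applied in-furrow (e.g. 1.1 + 0.37 mg a.i./cm, or 227 g/305 m with acetone-applied safeners). About five days later, herbicides in water with 0.25% v/v X-77 were track-sprayed post-emergence at 187 L/ha. Plant response was scored eight days afterward, with two to four replicates.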

Corn [3] = assay: Greenhouse test Procedure VI: biocide and antidote in furrow, herbicide PPI in cover layer (Examples 43-47, 59-61; Tables 42-46, 58-60); details: COUNTER 15G/PURSUIT interaction; Example 47
From the text: This procedure describes interaction among herbicide, biocide and antidote when the herbicide is incorporated in a soil cover layer and the biocide and the antidote are applied in a soil furrow containing crop seed before emergence of the crop. The soil and seeding depth were described in Procedure IV. A first container was designated as an untreated control, a second container was designated as a herbicide control, a third container was designated as a herbicide + biocide control and a fourth container as a herbicide + biocide + antidote test container. The biocide and antidote were formulated as granules. The biocide was applied to the soil furrows of the third and fourth containers at an application rate of 1.1 mg of active compound per cm of row. The antidote was applied to the soil furrow of the fourth container at an application rate of 0.37 mg of active compound per cm of row. A measured amount of the herbicide dispersed or dissolved in acetone was applied to a measured quantity of soil. The quantity of soil treated with the herbicide was thoroughly mixed to incorporate the herbicide. Samples of this soil were used to cover the seed beds of the second, third and fourth containers. For each test series, the seed bed of the first container was likewise covered by a soil layer not treated with herbicide and without biocide or antidote in the soil furrow.
The containers were then placed on a bench in a greenhouse. Watering was by subirrigation plus overhead irrigation after the plants emerged. All treatments were run in duplicate. Plant response was observed according to Procedure IV. Variations in this procedure will be noted in the examples.
In continuing tests to evaluate the variations of this invention, a series of tests were conducted to determine the efficacy of the above safeners in Examples 39-42 to alleviate corn injury induced by the interaction of various additional commercial sulfonylurea herbicides with COUNTER 15G insecticide. In this example, the tests were conducted according to Procedure VI above. In modifications of that procedure, herbicides were applied to soil samples as acetone/water suspensions, incorporated by shaking in a closed container, with subsamples used to cover furrow-treated 10.2 cm pots. Pots were subirrigated followed by overhead misting on days 6-10.
This example was designed to test the safening effect of those above safeners used in this test series to relieve corn injury by negative synergism induced by interaction of COUNTER 15G and three imidazolinone herbicides, i.e., imazaquin and imazapyr (used in the POE tests in Example 41) and AC 263222 (a.i. in CADRE® herbicide). As differing from the tests in Example 41, this test was a PPI test according to Procedure VI described above. Observation of test results (Table 43) were taken thirteen 913) days after in-furrow PPI preparation.
This example describes PPI tests to evaluate said test safeners in this series with analogs of the sulfonamide herbicides tested under POE herbicide application procedures described in Example 42. In these tests, conducted according to Procedure VI described above, Herbicide Nos. 20, 22 and 24 were applied PPI with the insecticide and antidote. Observations of tests results were made thirteen days after PPI initiation.
An additional three (3) sulfonamide herbicide analogs were tested simultaneously and under the same conditions described in Example 45.
Another test of this invention involved the safening effects of the safeners in this series against negative synergy inducted by the interaction of COUNTER 15G and a sulfonylurea herbicide (OUST®), Herbicide No. 13, and PURSUIT, an imidazolinone herbicide, No. 6. Test conditions were the same as those in Examples 43-46. Other procedures for applying herbicidal formulations are as described in Example 42. […]

[4] = Herb. No. 7 (ACCENT) 0.0044 Kg/Ha POE
[5] = Herb. No. 7 (ACCENT) 0.035 Kg/Ha POE
[6] = Herb. No. 7 (ACCENT) 0.28 Kg/Ha POE

## COc1cc(OC)nc(NC(=O)NS(=O)(=O)c2ncccc2C(=O)N(C)C)n1 [Herb. No. 7]
Corn [1]; [4]
  inhibition: 0%
Corn [1]; [5]
  inhibition: 0%
Corn [1]; [6]
  inhibition: 0%
Cotton (COTT); [4]
  inhibition: 25%
Cotton (COTT); [5]
  inhibition: 40%
Cotton (COTT); [6]
  inhibition: 50%
Wheat (WHEA); [4]
  inhibition: 35%
Wheat (WHEA); [5]
  inhibition: 45%
Wheat (WHEA); [6]
  inhibition: 60%
RICE; [4]
  inhibition: 20%
RICE; [5]
  inhibition: 40%
RICE; [6]
  inhibition: 50%
Soybean (SOBE); [4]
  inhibition: 10%
Soybean (SOBE); [5]
  inhibition: 20%
Soybean (SOBE); [6]
  inhibition: 40%
Giant foxtail (GIFT); [4]
  inhibition: 65%
Giant foxtail (GIFT); [5]
  inhibition: 70%
Giant foxtail (GIFT); [6]
  inhibition: 75%
Velvetleaf (VELE); [4]
  inhibition: 40%
Velvetleaf (VELE); [5]
  inhibition: 60%
Velvetleaf (VELE); [6]
  inhibition: 65%
Grain sorghum (GRSO); Table 62, Herb. No. 7 (ACCENT) 0.0044 Kg/Ha POE
  inhibition: 60%
Grain sorghum (GRSO); Table 62, Herb. No. 7 (ACCENT) 0.035 Kg/Ha POE
  inhibition: 65%
Grain sorghum (GRSO); Table 62, Herb. No. 7 (ACCENT) 0.28 Kg/Ha POE
  inhibition: 75%

## N#CCOc1ccc(Cl)c2cccnc12 [Antidote No. 33, Acetonitrile, [(5-chloro-8-quinolinyl)oxy]-]
Corn [1]; COUNTER 15G and BEACON, Example 62
  corn injury: effectively reduced
Corn [2]
  corn injury: significantly reduced
Corn [3]
  safening: good activity
